# Data: US7285541B2, “Treatment of melanoma by reduction in clusterin levels” (The University of British Columbia, priority 2002, dated 2007)
# e = 2'-O-(2-methoxyethyl) (MOE); d = 2'-deoxy (DNA)
# Columns and labels:
# Mel Juso melanoma cells = assay: Cell survival of Mel Juso melanoma cells (Neo or clusterin overexpression) in cisplatin, Cell-titer 96; format: cell-based, human; conditions: 10 μM cisplatin, clusterin-overexpressing vs empty vector (Neo) Mel Juso cells
# Method: Mel Juso melanoma cells stably tranfected with either an empty control vector (Neo) or a vector directing overepression of clusterin were grown in medium containing 10 μM cisplatin. Cell survival was measured using the Cell-titer 96 kits from Promega.
# 518A2 cells = assay: Sensitivity of antisense-treated melanoma cells to consecutive cisplatin treatment; format: cell-based, human; conditions: another melanoma cell line (FIG. 2, 518A2), compared to control-mismatch oligonucleotide
# human melanoma cells = assay: Apoptotic cell death of human melanoma cells after antisense treatment; format: cell-based; conditions: antisense treatment alone
# clusterin = assay: Clusterin expression in human melanoma cells by RT-PCR and western-blot; format: cell-based; conditions: as compared to the scrambled mismatch control
# Method: Expression of clusterin in two different batches of normal human melanocytes (NHEM 6083 and 2489) and four human melanoma cell lines (518A2, SKMEL-28, Mel-Juso and 607B). Cells were grown in 6 cm dishes and harvested when they were 80-90% confluent. 30 μg of protein per lane was applied onto a 10% SDS-Page gel and probed with a polyclonal goat anti-clusterin antibody. Panceau red stain and an antibody directed against β-actin were used as a loading control. In each case, the antisense inhibitor of clusterin used is based on the advanced antisense chemistry 2′MOE as described in U.S. patent application Ser. No. 10/080,794 and has the sequence of Seq. ID. NO. 4.
# FIG. 2 provides a graphic representations of clusterin expression in 518A2 cells after treatment with cisplatin and either an antisense oligonucleotide or a scrambled control. Lip is a Lipofectin control without oligonucleotide. Detection was performed using an antibody directed against clusterin.
# 607B melanoma cells = assay: Cell number of 607B melanoma cells measured photometrically using MTS; format: cell-based, human
# Method: Lipofectin™ (lip) without oligonucleotide was used as a control. Cells numbers in 96 well plates were measured photometrically using MTS (Cell Titer 96™, […]).
# bcl-xL = bcl-xL expression in clusterin-expressing melanoma cells (Western blotting); format: cell-based, human
# Text: While chaperone-like function has been proposed for the clusterin protein, the specific molecular mechanism responsible for clusterin's role in apoptosis remains elusive. In the human melanoma cell line that expressed clusterin at a very low levels, over-expression of clusterin by stable transfection not only led to a marked increase in resistance to a cytotoxic treatment (FIG. 3), but led also to an up-regulation of the anti-apoptotic bcl-2 family member bcl-xL as shown by Western blotting. […] Thus, clusterin regulates the anti-apoptotic bcl-2 family member bcl-xL. Such inhibition is significant because bcl-xL is known to act as an inhibitor of apoptosis (See U.S. Pat. No. 6,182,216 which is incorporated herein by reference in those jurisdictions permitting such incorporation).
Molecule,effectiveness of the chemotherapy agent (cell survival) (Mel Juso melanoma cells),sensitivity of surviving cells to consecutive treatment with cisplatin (518A2 cells),apoptotic cell death (human melanoma cells),down-regulation of clusterin on the mRNA level (clusterin; RT-PCR),down-regulation of clusterin on the protein level (clusterin; western-blot),"cell death (607B melanoma cells; 607B melanoma cell line, antisense treatment alone)","cell counts (607B melanoma cells; 607B melanoma cells, antisense at 250 and 500 nM on two consecutive days, vs scrambled control 100 nM and Lipofectin)",expression of bcl-xL (bcl-xL)
N.N.[Cl][Pt][Cl] [cisplatin],reduced the effectiveness,–,–,–,–,–,–,–
"cagcagcagagtcttcatcat (CAGCAGCAGAGTCTTCATCAT; sugars from the 5' end e4 d13 e4, all phosphorothioate, methylation of C not given here) [MOE modification of Seq. ID. NO. 4]",–,increased sensitivity,increase in apoptotic cell death,dose dependent down-regulation,dose dependent down-regulation,complete cell death,significantly reduced,marked down-regulation
